Here are results for eight compounds from patent US20250074911A1, “MACROCYCLIC BTK INHIBITORS” (Crossfire Oncology Holding B.V., priority 2021, published 2025).

One test addresses BTK T474I (Homo sapiens (Human), UniProt Q06187, T474I). The test is described as follows: Binding kinetics measurements (Surface Plasmon Resonance) on BTK T474I. To be noted: for Tau (h) BTK T474I (Act): target residence time, SPR; for Kd: binding affinity by Surface Plasmon Resonance (SPR). On the procedure:
(§1) Binding kinetics measurements on wt-BTK, BTK […], BTK […], BTK […] and BTK […] (Surface Plasmon Resonance) Streptavidin-coated chips (Cat. No. BR100531), disposables and maintenance kits for Biacore were purchased from Cytiva (Eindhoven, The Netherlands). […] Remaining streptavidin was blocked with biocytin. Immobilization was performed at 4° C. Subsequent assay steps were conducted at 22° C. After changing buffer to Biacore buffer with 1% (v/v) dimethylsulfoxide (DMSO), a pre-run was performed for a period of at least 30 min at a flow rate of 30 μl/min to obtain a stable surface. The kinetic constants of the compounds were determined with single cycle kinetics with five consecutive injections with an increasing compound concentration with ranges of 3.16-316 nM. […] To circumvent problems of mass transport limitation, a flow rate of 30 μl/min was used. A blank run with the same conditions was performed before the compound was injected. The SPR sensorgrams were analyzed with Biacore Evaluation Software by using a method of double referencing. First the reference channel was subtracted from the channel containing immobilized protein. Subsequently, the reference curve obtained with buffer injections was subtracted. […] Compounds that bound according to an induced fit model were fitted with a two-state reaction model. The kinetic constants (ka, […], KD) of duplicates were geometrically averaged. […] Target residence for an induced fit model was calculated as described (Tummino and Copeland, 2008).

Test [1] has as its system wt-TMD8 diffuse large B-cell lymphoma cells. The test can be described thus: Cell proliferation assay wt-TMD8 (ATPlite, 120 hours). It is filed as cell-based. As to conditions: B-cell; wt-TMD8 cells, 120 hours, ATPlite; read-out: IC50 wt-TMD8. The gist of the method: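 Readout is percentage growth from ATPlite 1Step luminescence after 5 days (120 h) compound treatment of wt-TMD8 lymphoma cells (1600/well, RPMI-1640 + 10% FBS). Time-zero signal separates growth inhibition from cell kill; 0.3% DMSO wells without compound define maximal growth.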
(In ATP-based viability assays light output follows the ATP content of the culture.)

For a further test, the target named is wt-BTK (Homo sapiens (Human), UniProt Q06187). The test can be described thus: Binding kinetics measurements (Surface Plasmon Resonance) on wt-BTK. To be noted: for Tau (h) wt-BTK (Act): target residence time, SPR; for Kd: binding affinity by Surface Plasmon Resonance (SPR). As to the method: as §1
The test system of a further test is REC-1 T474I cell lines. The test is described as follows: Cell proliferation assay REC-1 BTK T474I knock-in cells (ATPlite, 72 hours). It is filed as cell-based. To be noted: Homo sapiens, Rec1; 72 hours; read-out: IC50 REC-1 T474I. In short, it runs like this: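 REC-1 cells carrying CRISPR knock-in mutant BTK, single-cell cloned and sequence-confirmed, were exposed to compound for 72 h and read by ATPlite luminescence. Percentage growth was calculated against the signal at the start of incubation and against untreated 0.3% DMSO wells as maximum growth.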

For test [2], the target named is full-length wt-BTK enzyme (Homo sapiens (Human), UniProt Q06187). The test is described as follows: Biochemical kinase assay wt-BTK (IMAP). In short, it runs like this: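 Compound and enzyme (final 1.2 nM) were pre-incubated for 1 h at RT, after which the reaction was started with 4 μM ATP plus 50 nM fluorescein-MBP substrate peptide. After 2 h in the dark, the IMAP progressive binding reagent stopped the reaction, and phosphorylation was read by fluorescence polarization.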

The target in test [3] is full-length BTK C481S enzyme (Homo sapiens (Human), UniProt Q06187, C481S). The test can be described thus: Biochemical kinase assay BTK C481S (IMAP). In short, it runs like this: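 IC50 values come from IMAP fluorescence polarization after quenching with progressive binding solution. The reaction ran 2 h at room temperature in the dark with 1.2 nM full-length C481S enzyme, 7 μM ATP and 50 nM fluorescein-labelled MBP-derived peptide, following a 1 h dark pre-incubation of compound with enzyme.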

In test [4] the test system is wt-REC-1 mantle cell lymphoma cells. The test is described as follows: Cell proliferation assay wt-REC-1 (ATPlite, 72 hours). In kind it is cell-based. To be noted: 72 h; read-out: IC50 wt-REC-1. In short, it runs like this: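 Luminescent viability read over 72 h, start-of-incubation signal recorded separately to separate growth from cell death. Percentage growth referenced to compound-free 0.3% DMSO wells; IC50 from 4-parameter logistic fit.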

Chain of full-length BTK C481S enzyme (Q06187 whole entry C481S): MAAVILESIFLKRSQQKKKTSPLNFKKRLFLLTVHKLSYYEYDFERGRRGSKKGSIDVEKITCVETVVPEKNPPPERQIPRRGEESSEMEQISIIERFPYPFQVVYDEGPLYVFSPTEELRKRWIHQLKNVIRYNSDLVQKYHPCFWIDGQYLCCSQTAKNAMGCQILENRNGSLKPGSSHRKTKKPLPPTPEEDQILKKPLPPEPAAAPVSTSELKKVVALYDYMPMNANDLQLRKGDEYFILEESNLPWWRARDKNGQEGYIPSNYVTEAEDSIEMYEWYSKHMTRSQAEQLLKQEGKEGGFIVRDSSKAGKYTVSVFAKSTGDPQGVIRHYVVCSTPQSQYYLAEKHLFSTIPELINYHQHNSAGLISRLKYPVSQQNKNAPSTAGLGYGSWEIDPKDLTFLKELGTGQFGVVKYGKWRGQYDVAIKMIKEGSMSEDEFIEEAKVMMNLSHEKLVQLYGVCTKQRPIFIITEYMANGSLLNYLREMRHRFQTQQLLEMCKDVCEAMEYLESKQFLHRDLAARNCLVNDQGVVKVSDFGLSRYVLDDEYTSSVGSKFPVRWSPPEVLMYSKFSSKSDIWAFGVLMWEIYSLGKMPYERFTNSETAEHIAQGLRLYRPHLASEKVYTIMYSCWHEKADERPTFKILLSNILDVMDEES
Chain of full-length wt-BTK enzyme (Q06187 whole entry): as the sequence (Q06187 whole entry C481S) above, with S481C counted along it
Chain of wt-BTK (Q06187 whole entry): as the sequence (Q06187 whole entry C481S) above, with S481C counted along it
Chain of BTK T474I (Q06187 whole entry T474I): as the sequence (Q06187 whole entry C481S) above, with T474I, S481C counted along it

Turning to `N#Cc1ccnc(NC(=O)c2ccc(-c3nn4c5c(cnc(N)c35)/C=C/CCOCCC(=O)N[C@@H]3CC[C@@H]4C3)cc2)c1` [Example 185], the “Tau (h) BTK T474I (Act)” value at BTK T474I came to 1.26 h. For the same compound, the half-maximal inhibitory concentration (IC50) – broadly, the concentration that inhibits the measured activity by half – in test [1] is < 100 nM; with REC-1 T474I cell lines, < 100 nM; in test [2], < 5 nM; in test [3], < 5 nM; in test [4], < 100 nM. Besides, the “Tau (h) wt-BTK (Act)” value on wt-BTK is on record as 10.79 h.
Consider `N#Cc1ccnc(NC(=O)c2ccc(-c3nn4c5c(cnc(N)c35)/C=C/CCN3CC[C@H]3C(=O)N[C@@H]3CC[C@@H]4C3)cc2)c1` [Example 186], for which the “Tau (h) BTK T474I (Act)” value on BTK T474I came out at 0.93 h. The concentration for half-maximal inhibition (IC50) in test [1] was < 100 nM; in the test with REC-1 T474I cell lines it was < 100 nM; in test [2] it was < 5 nM; in test [3] it was < 5 nM; in test [4] it was < 100 nM. Further, on wt-BTK, the “Tau (h) wt-BTK (Act)” value is listed as >24 h.
For the compound `Nc1ncc2c3c1c(-c1ccc(C(=O)Nc4cc(F)ccn4)cc1)nn3[C@@H]1CCC[C@H](C1)NC(=O)CCOC/C=C/2` [Example 189], the “Tau (h) BTK T474I (Act)” value at BTK T474I is 1.56 h. Also, the concentration for half-maximal inhibition (IC50) in test [1] is < 100 nM; in the test with REC-1 T474I cell lines, 500 to 10000 nM; in test [2], < 5 nM; in test [3], < 5 nM; in test [4] it was 1000 to 10000 nM. Further, the Kd (in general, the concentration at which binding is half-saturated) at wt-BTK is < 5 nM. Also, the “Tau (h) wt-BTK (Act)” value at wt-BTK is given as 4.17 h.
With `Nc1ncc2c3c1c(-c1ccc(C(=O)Nc4cc(C(F)(F)F)ccn4)cc1)nn3[C@@H]1COC[C@H](C1)NC(=O)CCOC/C=C/2` [Example 192], the dissociation constant (Kd) is < 2 nM on BTK T474I and < 5 nM on wt-BTK. Also, the “Tau (h) BTK T474I (Act)” value on BTK T474I was 1.40 h. Further, the IC50 is < 100 nM in test [1]; < 100 nM in the test on REC-1 T474I cell lines; < 5 nM in test [2]; < 5 nM in test [3]; < 100 nM in test [4]. For the same compound, at wt-BTK, the “Tau (h) wt-BTK (Act)” value is listed as 3.61 h.
With `Nc1ncc2c3c1c(-c1ccc(C(=O)Nc4cc(F)ccn4)cc1)nn3[C@@H]1CCC[C@H](C1)NC(=O)CCOCC/C=C/2` [Example 193], the values for the dissociation constant (Kd) at BTK T474I and at wt-BTK were < 2 nM and < 5 nM, respectively. Moreover, at BTK T474I, the “Tau (h) BTK T474I (Act)” value is >24 h. For the same compound, the IC50 in test [1] was < 100 nM; in the test with REC-1 T474I cell lines it was < 100 nM; in test [2], < 5 nM; in test [3], < 5 nM; in test [4] it was < 100 nM. For the same compound, the “Tau (h) wt-BTK (Act)” value on wt-BTK came out at 6.70 h.
`COc1cc(-c2nn3c4c(cnc(N)c24)/C=C/CCOCCC(=O)N[C@@H]2CCC[C@@H]3C2)ccc1C(=O)Nc1cc(C(F)(F)F)ccn1` [Example 195]: the “Tau (h) BTK T474I (Act)” value at BTK T474I is 0.73 h. The IC50 in test [1] was < 100 nM; in the test with REC-1 T474I cell lines it was < 100 nM; in test [2], < 5 nM; in test [3], < 5 nM; in test [4], < 100 nM. The Kd on wt-BTK is < 5 nM. Besides, the “Tau (h) wt-BTK (Act)” value on wt-BTK was found to be 3.73 h.
`Nc1ncc2n3c(nc(-c4ccc(C(=O)Nc5cc(C(F)(F)F)ccn5)cc4)c13)[C@@H]1CC[C@H](C1)NC(=O)CCCCC/C=C/2` [Example 203]: on BTK T474I, the “Tau (h) BTK T474I (Act)” value worked out at 4.17 h. Also, the 50% inhibitory concentration (IC50) in test [1] is < 100 nM; with REC-1 T474I cell lines, < 100 nM; in test [2], < 5 nM; in test [3], < 5 nM; in test [4], < 100 nM. In addition, the “Tau (h) wt-BTK (Act)” value on wt-BTK worked out at 5.73 h.
`Nc1ncc2c3c1c(-c1ccc(C(=O)Nc4cc(C(F)(F)F)ccn4)cc1)nn3[C@@H]1CN[C@H](C1)C(=O)NCCCCC/C=C/2` [Example 225]: the “Tau (h) BTK T474I (Act)” value at BTK T474I was found to be 1.19 h. Besides, the “Tau (h) wt-BTK (Act)” value at wt-BTK came to 3.59 h. Besides, the IC50 in the test with REC-1 T474I cell lines is 500 to 10000 nM; in test [2] it was < 5 nM; in test [3] it was < 5 nM; in test [4], < 100 nM.
